Assay results reported in patent publication US11759480B2, “Compositions and methods for CAR T cell therapy” (ENDOCYTE, INC., priority 2017, dated 2023).
Like-named read-outs stand apart in the source and are kept apart here.

Assays:
[1] = system: MDA-MB-231 solid tumor xenografts; assay: Effect of FITC-Folate dose on anti-FITC CAR T cell response (Example 10); assay type: in vivo, NSG mice
From the text: Five experimental groups: (1) anti-FITC CAR T cell with PBS; (2) anti-FITC CAR T cell with FITC-Folate (5 nmoles/kg); (3) anti-FITC CAR T cell with FITC-Folate (50 nmoles/kg); (4) anti-FITC CAR T cell with FITC-Folate (500 nmoles/kg); (5) anti-FITC CAR T cell with FITC-Folate (2500 nmoles/kg) were designed to identify the relationship between anti-FITC CAR T cell response and the dose of FITC-ligands. MDA-MB-231 cells were subcutaneously injected into the shoulders of NSG mice (Jackson Laboratory) to establish solid tumor xenografts. When tumor volume reached around 50-100 mm^3, anti-FITC CAR T cells (15×10^6 cells) and different doses of FITC-Folate were intravenously introduced into the mice.
To monitor anti-FITC CAR T cell activation with the different doses of FITC-Folate, IFN-gamma concentration was measured in mouse blood by a bead-based immunoassay (Legendplex kit from Biolegend). Tumor volume was also measured. General toxicity for each treatment group was monitored by measuring weight loss.

[2] = system: anti-FITC CAR T cells with MDA-MB-231; assay: In vitro interferon-γ assay (Example 22); assay type: cell-based, Human
Description: In order to study the relationship between bridge dose and anti-FITC CAR T cell activation, a folate receptor positive cancer cell line (MDA-MB-231) was seeded at a density of 10^4 cells/100 ul of media in each well of a 96-well plate and the cells were grown overnight. Anti-FITC CAR T cells (5×10^4 cells) were then added into each well containing cancer cells with various concentrations of Folate-FITC (from 0.001 nM to 100 μM) for 6-24 hours. After co-incubation, the plates containing anti-FITC CAR T cells and cancer cells were centrifuged for 10 min at 350×g to remove cells and cellular debris, and 50 ul of supernatant was assayed by ELISA (Human IFN-γ ELISA kit from Biolegend) to detect IFN-γ production by anti-FITC CAR T cells.

[3] = system: naïve mice without tumors; assay: CAR-T cells with EC17 in naïve mice without tumors (Example 25); assay type: in vivo; conditions: 500 nmoles/kg three times per week
Description: Five million CAR-T cells were injected (i.v.) into naïve mice without tumors. 500 nmoles/kg EC17 was administrated three times per week. Mice were monitored for 5 weeks, and some were euthanized every week to evaluate organs.

MDA-MB-231 tumor = assay: CAR-T anti-tumor activity and toxicity at different EC17 dose levels (Example 27); assay type: in vivo
Description: Immunodeficient NSG mice (Jackson Laboratory) were used to study CAR T cell anti-tumor activity and its toxicity in the presence of different EC17 dose levels. MDA-MB-231 tumor cells were used to establish subcutaneous solid tumor xenografts. When tumor volume of around 100-150 mm^3 was reached, various concentrations of EC17 were pre-injected 4 hours before i.v. injection of 10 million CAR-T cells. Various concentrations of EC17 were then administrated three times per week after the initial EC17 and CAR-T cell injections. The negative control group was injected with 500 nmol/kg EC17 (4 hour in advance) and […] unmodified T cells. 500 nmol/kg EC17 was then administrated three times per week after initial injection. Tumor size and body weight were measured to monitor the anti-tumor activity and the toxicity. […] By adjusting the EC17 dose level, CAR-T anti-tumor activity can be maintained while the resulting body weight loss (toxicity) can be reduced. In FIGS. 20A and 20B, EC17 is also referred to as “adaptor” or “bi-specific adaptor”.

MDA-MB-231 = assay type: in vivo; conditions: for mice died (or euthanized due to sCRS): Week 2
Description: To evaluate whether pre-painting tumors with EC17 can reduce the therapy-related toxicity (e.g. sCRS), NSG mice were implanted with MDA-MB-231. Since larger tumor burden is correlated with more severe CRS, the treatment was started when tumor size reached […]. Mice were divided into two groups and predosed with 500 nmol/kg EC17 at different time points before CAR-T administration (FIGS. 26A and 26B). Group #1 was pre-dosed 4 hours before the administration of 8 million CAR-T cells, while group #2 was pre-dosed 24 hours before the administration of 8 million CAR-T cells. 500 nmol/kg EC17 was then i.v. dosed once per week (at days 1, 8, 15 etc.) post CAR-T administration (FIGS. 26D and 26E). […] No difference in anti-tumor activity was found in these two groups, and all surviving mice became tumor free eventually. Thus, toxicity was less in mice with 24 hour pre-painting than in mice with 4 hour pre-painting with EC17.

KB cells = assay: Anti-fluorescein CAR T cell activity against KB cells in vitro (Example 43); assay type: cell-based; conditions: CAR T:KB 10 to 1
Description: FR positive cancer cell lines (e.g. KB or MDA-MB-231 cells) were seeded at density of 10^4 cells/100 μl media into 96 well plates and grown overnight. Anti-fluorescein CAR T cells were added to each well in the absence or presence of bridge molecules. After co-incubation for 6-24 hours, plates were centrifuged at 350×g for 10 min to remove debris and supernatants were analyzed for lactate dehydrogenase release (cell death analysis) using Pierce™ LDH cytotoxicity assay kit (Thermo Fisher Scientific, MA) and interferon γ (IFNγ) levels using human IFNγ ELISA kit (Biolegend, CA), while pellets were either evaluated for CAR T cell activation by staining with anti-human CD69 APC (Clone: FN50, Biolegend, CA) or examined for CAR T cell proliferation by culturing for 5 days in TexMACS™ medium (Miltenyi Biotech Inc, CA) containing 1% penicillin and streptomycin sulfate and quantitating by flow cytometry using the intrinsic GFP fluorescence and staining with anti-human CD3 APC antibody (Clone:HIT3a, Biolegend, CA).

MDA-MB-231 tumors [4] = conditions: mouse, in vivo
Description: (§1) To evaluate whether mice with FITC-CAR-T therapy related sCRS can be rescued by using competitors which may displace EC17 from either FITC-CAR-T or FR+ tumor cells, 49 NSG mice bearing MDA-MB-231 tumors (150-250 mm3) were administered with excess FITC-CAR-T cells (8 million), 36 of them were then dosed with 500 nmol/kg EC17 48 hours post CAR-T administration, 6 of them were not dosed with EC17 and were used as “No EC17” control, and 7 of them were dosed with 260 umol/kg sodium fluorescein (no EC17 but Fluorescein) to test its toxicity. […] Each group was i.v. injected with 10 umol/kg of Leucovorin, or 10 umol/kg folic acid, or 260 umol/kg sodium fluorescein, or nothing as an un-rescued control. […] Mouse body weight changes were also monitored as the indication of toxicity. […] To evaluate whether the rescue injections affect the anti-tumor activity of FITC-CAR-T cells, these mice were dosed with 500 nmol/kg EC17 twice per week (days 9, 11, 15, 18, 22, 25, etc.) and the tumor size was monitored.

MDA-MB-231 tumors [5] = assay: Comparison of three rescue reagents (Example 32)
Description: as §1

Nc1nc2ncc(CNc3ccc(C(=O)NC(CCC(=O)NCCNC(=S)Nc4ccc(-c5c6ccc(=O)cc-6oc6cc(O)ccc56)c(C(=O)O)c4)C(=O)O)cc3)nc2c(=O)[nH]1 (centres unmarked) [EC17, FITC-Folate]
concentration of IFN-gamma versus FITC-Folate dose ([1]; 5, 50, 500, 2500 nmoles/kg, 15×10^6 CAR T cells): bell-shaped dose-response curve | dose with maximum toxicity (lowest survival rate) and highest anti-tumor efficacy ([1]; 15×10^6 CAR T cells): 500 nmol/kg | anti-tumor efficacy of CAR T cells ([1]; FITC-Folate 2500 nmole/kg): started to decrease | optimal bridge dose (highest IFN-γ level) ([2]; 0.001 nM to 100 μM, 6-24 hours): 10 nM | IFN-γ production ([2]; 10 μM and 100 μM): not detected | CAR-T cell proliferation (blood count, spleen size) [3]: did not proliferate | body weight ([3]; 5 million CAR-T, 5 weeks): No apparent body weight loss | toxicity (body weight loss) (MDA-MB-231 tumor; 20 nmol/kg TIW): least toxicity | toxicity (body weight loss) (MDA-MB-231 tumor; 500 nmol/kg TIW): strongest toxicity | tumor outcome (MDA-MB-231 tumor; 500, 100 or 20 nmol/kg TIW, 10 million CAR-T): all eliminated | mice survived over 5 weeks (MDA-MB-231; 4-hour pre-painting): 17% | mice died (or euthanized due to sCRS) (MDA-MB-231; 4-hour pre-painting): 33% | mice died (MDA-MB-231; 4-hour pre-painting, Week 3): 33% | mice died (MDA-MB-231; 4-hour pre-painting, week 4): 17% | mice died (or euthanized due to sCRS) (MDA-MB-231; 24-hour pre-painting): 17% | mice survived over 5 weeks (MDA-MB-231; NSG, mouse, in vivo): 83% | tumor outcome of surviving mice (MDA-MB-231; both pre-painting groups): tumor free | IFNγ production (KB cells; 100 nM): induced | proliferation of anti-fluorescein CAR T cells (KB cells): induced

O=C([O-])c1ccccc1-c1c2ccc(=O)cc-2oc2cc([O-])ccc12.[Na+].[Na+] [sodium fluorescein]
condition of mice (toxicity test) (MDA-MB-231 tumors [4]): healthy | body weight loss compared to other rescue groups (MDA-MB-231 tumors [5]; 260 umol/kg): least body weight loss | order of sCRS severity (from worst to least) (MDA-MB-231 tumors [5]; 10 hours after rescue, Leucovorin 10, folic acid 10, sodium fluorescein 260 umol/kg): no rescue group>leucovorin rescue group>folic acid rescue group>sodium fluorescein rescue group>no EC17 group | mice with a tiny tumor left (MDA-MB-231 tumors [5]; day 36 post CAR T injection): 2 out of 9
